Source: US6339098B1, “2,1-benzisothiazoline 2,2-dioxides” (American Home Products Corporation, priority 1999, dated 2002)
pIC50: −log10 of the molar value.

Biological target: T1, human PR (hPR-B) (Homo sapiens, UniProt P06401)
T1 construct: expressed in transfected cells; host or cells: CV-1 cells (electroporation with pLEM-hPR-B and pGL3-2xPRE-luciferase)
T1 sequence (P06401 1-933): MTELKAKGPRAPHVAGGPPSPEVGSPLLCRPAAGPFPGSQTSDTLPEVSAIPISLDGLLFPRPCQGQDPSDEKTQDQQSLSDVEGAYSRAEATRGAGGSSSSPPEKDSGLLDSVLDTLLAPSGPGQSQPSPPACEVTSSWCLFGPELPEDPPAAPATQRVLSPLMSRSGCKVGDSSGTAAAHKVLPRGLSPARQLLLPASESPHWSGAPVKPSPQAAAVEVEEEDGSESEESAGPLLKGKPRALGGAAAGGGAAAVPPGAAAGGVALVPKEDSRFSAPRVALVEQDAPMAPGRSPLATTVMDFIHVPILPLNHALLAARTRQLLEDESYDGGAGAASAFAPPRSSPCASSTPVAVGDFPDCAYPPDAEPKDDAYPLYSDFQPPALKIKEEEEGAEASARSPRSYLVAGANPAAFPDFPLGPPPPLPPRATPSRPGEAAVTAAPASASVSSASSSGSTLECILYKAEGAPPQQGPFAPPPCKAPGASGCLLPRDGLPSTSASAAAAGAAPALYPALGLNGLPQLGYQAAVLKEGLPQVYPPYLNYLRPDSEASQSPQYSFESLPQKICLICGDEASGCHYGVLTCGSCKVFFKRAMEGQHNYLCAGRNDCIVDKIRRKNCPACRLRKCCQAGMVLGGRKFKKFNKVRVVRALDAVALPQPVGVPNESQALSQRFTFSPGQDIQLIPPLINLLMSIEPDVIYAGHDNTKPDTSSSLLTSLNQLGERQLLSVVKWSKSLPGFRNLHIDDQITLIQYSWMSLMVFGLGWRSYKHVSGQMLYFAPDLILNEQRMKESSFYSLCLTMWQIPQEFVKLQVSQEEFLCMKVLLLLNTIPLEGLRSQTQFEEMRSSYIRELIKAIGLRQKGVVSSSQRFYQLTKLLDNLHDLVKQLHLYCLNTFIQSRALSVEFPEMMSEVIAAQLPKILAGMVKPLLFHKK
Experiment: PRE-luciferase reporter activity in CV-1 cells co-transfected with human PR and PRE-luciferase plasmids (antiprogestational activity)
Type: cell-based
Settings: CV-1 cells co-transfected with hPR-B and PRE-luciferase; in the presence of 3 nM progesterone; 24 h treatment; read-out: IC50 (concentration giving half-maximal decrease in 3 nM progesterone induced PRE-luciferase activity)
Method: The procedure used and results obtained are described in Example 2 below.
Growth medium: DMEM (BioWhittaker) containing 10% (v/v) fetal bovine serum (heat inactivated), 0.1 mM MEM non-essential amino acids, 100 U/ml penicillin, […] streptomycin, and 2 mM GlutaMax (GIBCO, BRL).
Experimental medium: DMEM (BioWhittaker), phenol red-free, containing 10% (v/v) charcoal-stripped fetal bovine serum (heat-inactivated), 0.1 mM MEM non-essential amino acids, 100 U/ml penicillin, […] streptomycin, and 2 mM GlutaMax (GIBCO, BRL).
Stock CV-1 cells were maintained in growth medium. Co-transfection was done using 1.2×10^7 cells, 5 mg pLEM plasmid with hPR-B inserted at Sph1 and BamH1 sites, 10 mg pGL3 plasmid with two PREs upstream of the luciferase sequence, and 50 mg sonicated calf thymus DNA as carrier DNA in […]. Electroporation was carried out at 260 V and […] in a Biorad Gene Pulser II. After electroporation, cells were resuspended in growth medium and plated in 96-well plate at 40,000 cells/well in […]. Following overnight incubation, the medium was changed to experimental medium Cells were then treated with reference or test compounds in experimental medium. Compounds were tested for antiprogestational activity in the presence of 3 nM progesterone. […] Luciferase activity was measured using luciferase reagents from Promega. […]

pIC50: 6.05
Compound: O=S1(=O)Nc2ccc(-c3cccc(Cl)c3)cc2C12CCCCC2 [Example 1]
